In brackets after ≈: the same amount, converted by molar mass.

The assay concerns KB. In words: Cytotoxicity against human KB cells. It counts as functional. The note with it: read-out: ED50 (the source's name).
As for `C[C@@H]1C[C@@H]2OC(=O)[C@]3(C)[C@H]2[C@@H](OC3(C)O)[C@]2(C)C(=O)C=C[C@@H]12` (some centres undefined) [TENULIN], the EC50 amounted to 26 µg/mL (≈ 84.9 µM).

For `COc1c(O)cc2oc(-c3ccc(O)cc3)cc(=O)c2c1O` [HISPIDULIN], the EC50 is 96 µg/mL (≈ 320 µM).

Turning to `C=C1C(=O)O[C@H]2C[C@@H](C)[C@@H]3C=CC(=O)[C@@]3(C)[C@H](O)[C@H]12` [MEXICANIN I], the EC50 was determined as 1.9 µg/mL (≈ 7.24 µM).

`C=C1C(=O)O[C@H]2C[C@@H](C)[C@@H]3C=CC(=O)[C@@]3(C)C[C@H]12` [AROMATICIN]: the EC50 came to 2 µg/mL (≈ 8.12 µM).

The values are drawn from ChEMBL document CHEMBL1158652, “Constituents of Helenium amarum. II. Isolation and Characterization of Heleniamarin and Other Constituents” (1979).
